Measured values published in patent US4088778A, “Method for the treatment of hypertension” (priority 1975, dated 1978).
Read-outs that look alike come from different tables or passages of the source.

What was measured:
[1] = Acute toxicity on rats; assay type: in vivo; conditions: for LD50: rats
Text: (§1) Toxicities of TN and TA will now be described.

[2] = Acute toxicity on mice; assay type: in vivo
Text: as §1

[3] = Subacute and chronic toxicities; assay type: in vivo; conditions: rats 100 to 1000 mg/Kg and beagles 100 mg/Kg daily, 3 or 6 months
Experimental: (B) Subacute and Chronic Toxicities:
TN and TA were separately administered to rats and beagles at daily doses of 100 to 1000 mg/Kg and 100 mg/Kg, respectively, continuously for 3 or 6 months.

[4] = Teratogenetic property test; assay type: in vivo, pregnant mice or pregnant rats; conditions: orally, 100 to 1200 mg/Kg
Text: (C) Teratogenetic Property Test:

[5] = Hypotensive effect on experimental hypertension caused by DOCA; assay type: in vivo, male wistar rats
Experimental: (A) Hypotensive effect on experimental hypertension caused by administration of desoxycorticosterone (hereinafter referred to as "DOCA"):
Right kidneys were removed from 6-week-old male wistar rats, and a 1% aqueous solution of sodium chloride was given as drinking water and 12.5 mg/Kg of DOCA was intramuscularly injected every week. The change of the blood pressure was examined over a period of 6 weeks.
48 rats, each having one kidney removed, were divided into 6 groups, each consisting of 8 rats, and each group was placed in a cage. With respect to each group, a gum arabic solution was administered to 2 rats as non-administered control animals. 20 mg/Kg of TN was administered once a day to each of two rats among the remaining 6 rats, and 100 mg/Kg of TN was administered once a day to each of two rats among the remaining 4 rats. 88 mg/Kg of TA was administered once a day to each of the remaining two rats. TN and TA were administered in the form of a suspension in gum arabic. The blood pressure was measured by a Shimazu type systolic pressure continuous recording apparatus detecting pulse waves of rats taken in a thermostat fixed box maintained at 30° C.

[6] = Experiment on young SHR (rats of spontaneous hypertension); assay type: in vivo, rats (7-week-old female SHR); conditions: 88 mg/kg TA
Experimental: Experiments were conducted by using two classes of rats of spontaneous hypertension (hereinafter referred to as "SHR"; provided by Nippon Rat K.K.) differing in the age. In the first experiment, 9-month-old chronic […] SHR (hereinafter referred to as "old SHR"), and in the second experiment, 7-week-old SHR in which hypertension was advancing (hereinafter referred to as "young SHR") was used.
(B) Experiment on Young SHR:
72 of 7-week-old female SHR (having a body weight of 130 to 175 g) were divided into 9 cages, each consisting of 8 rats. Service water was given as drinking water to rats of two cages among these 9 cages, and these rats were compared with other rats which were given a 1% aqueous solution of sodium chloride as drinking water. In each of the […] cages of rats to which the sodium chloride solution was given, no agent was administered to 2 of 8 rats, 20 mg/Kg of TN was administered to another 2 rats, 100 mg/Kg of TN was administered to still another 2 rats, and 88 mg/Kg of TA was administered to the remaining 2 rats.
After 2 weeks' feeding with the sodium chloride solution, administration was conducted once a day. Within 2 weeks from the start of administration,3 rats in the Control (non-administered) group, one rat in the 20 mg/Kg TN administered group, 3 rats in the 100 mg/Kg TN administered group, 3 rats in the 88 mg/Kg TA administered group and 4 rats in the service water given group were dead. In view of the body weight decrease and the snivel secretion and from the results of autopsy, it was judged that each of them died of pneumonia. The rats that died prior to initiation of the administration were not taken in account in evaluating the experimental results.

[7] = cited from earlier work

**Q.** What does the source list for `CC(=O)Oc1c(C)c(C)c2c(c1C)CCC(C)(CCCC(C)CCCC(C)CCCC(C)C)O2` (racemic) [TA, dl-α-tocopheryl acetate]?
**A.** animals killed in acute toxicity test ([1]; mice and rats, maximum amount that can be administered): no test animal was killed; LD50 ([1]; rat, in vivo, im, I.M., male, read-out: LD50): > 10000 mg/kg; LD50 ([1]; rat, in vivo, ip, I.P., male, read-out: LD50): > 2000 mg/kg; LD50 ([1]; rat, in vivo, iv, I.V., male, read-out: LD50): > 250 mg/kg; LD50 ([1]; rat, in vivo, po, P.O., male, read-out: LD50): > 15000 mg/kg; LD50 ([1]; rat, in vivo, sc, S.C., male, read-out: LD50): > 15000 mg/kg; LD50 ([1]; I.M., female): > 10000 mg/kg; LD50 ([1]; I.V., female): > 250 mg/kg; LD50 ([1]; P.O., female): > 15000 mg/kg; LD50 ([1]; S.C., female): > 15000 mg/kg; LD50 ([2]; I.M., female): > 15000 mg/kg; LD50 ([2]; I.V., female): > 1000 mg/kg; LD50 ([2]; P.O., female): > 20000 mg/kg; LD50 ([2]; S.C., female): > 20000 mg/kg; LD50 ([2]; mouse, in vivo, im, I.M., male, read-out: LD50): > 15000 mg/kg; LD50 ([2]; mouse, in vivo, ip, I.P., male, read-out: LD50): > 4000 mg/kg; LD50 ([2]; mouse, in vivo, iv, I.V., male, read-out: LD50): > 1000 mg/kg; LD50 ([2]; mouse, in vivo, po, P.O., male, read-out: LD50): > 20000 mg/kg; LD50 ([2]; mouse, in vivo, sc, S.C., male, read-out: LD50): > 20000 mg/kg; deaths [3]: no deaths; haematological, haemetobiological and histological surveys [3]: no manifestation of the toxicity was observed; inhibition of the body weight [3]: inhibition of the body weight was not observed; influences on mother animals, embryos and newborn babies [4]: no influences were observed; teratogenetic property [4]: no teratogenetic property; number of rats with blood pressure elevated to 170 mm Hg or higher ([5]; 88 mg/kg of TA once a day, among 12 rats (control 9 among 11)): 4 rats; hypotensive effect, overall conclusion from pharmacological tests on animals ([5]; DOCA rats, old SHR, young SHR): have a hypotensive effect; dead rats within 6 weeks from the start of the administration ([6]; among 11 rats, control 5 among 11): 3 rats; dead rats within 2 weeks from the start of administration ([6]; judged pneumonia, control 3): 3 rats

**Q.** For `NNc1nncc2ccccc12` [Hydralazine], which “effect on the heart” value ([7]; prior art) is on record?
**A.** increases the amount of blood fed to the heart and the pulse frequency and thus increases the load on the heart

**Q.** And the hypotensive activity ([7]; prior art)?
**A.** high hypotensive activity

**Q.** What about the undesirable side effects ([7]; prior art) of the same compound?
**A.** multiple arthritis resembling rheumatic arthritis and lupus erythematosus

**Q.** Which undesirable side effects ([7]; prior art) does the source give for `COC(=O)[C@H]1[C@H]2C[C@@H]3c4[nH]c5cc(OC)ccc5c4CCN3C[C@H]2C[C@@H](OC(=O)c2cc(OC)c(OC)c(OC)c2)[C@@H]1OC` [Reserpine] here?
**A.** inhibition of the central nervous system, such as asthenic feeling

**Q.** With `NS(=O)(=O)c1cc2c(cc1Cl)NCNS2(=O)=O` [hydrochlorothiazide] as the compound, how does the undesirable side effects ([7]; in vivo) read?
**A.** hypokalemia, hypercirycemia and manifestation of latent diabetes

**Q.** What about the hypotensive activity ([7]; prior art) of the same compound?
**A.** moderate hypotensive activity

**Q.** Which results are given for `C[C@](N)(Cc1ccc(O)c(O)c1)C(=O)O` [l-α-Methyl Dopa]?
**A.** hypotensive activity ([7]; prior art): high hypotensive activity; undesirable side effects ([7]; prior art): mammary hypertrophy, paraesthesia, nightmare and Parkisonism

**Q.** For `CC(COc1ccccc1)N(CCCl)Cc1ccccc1` (stereo not shown) [phenoxybenzamine], which undesirable side effects ([7]; prior art) is on record?
**A.** orthostatic hypotensive asthenia and tachycardia
